Source: patent US20100104614A1, “PROVIDONE COMPOSITIONS FOR WOUND HEALING” (priority 2008, published 2010)

Test: Treatment of non-healing dog bite wounds in a patient (Example 1)
Format: in vivo, human
Details: course of antibiotics (a cephalosporin and flagyl) and daily dressing changes; after five weeks
Method: A patient presented with six non-healing dog bite wounds, one on their forearm, and the rest on their lower extremeties. Their wounds were treated with a course of antibiotics (a cephalosporin and flagyl) and daily dressing changes. […] Further treatment with hyperbaric oxygen was being contemplated.
Approximately one tablespoon of povidone powder was sprinkled over the patient's wounds. Within four days, wounds had completely healed.

In the case of `Cc1ncc([N+](=O)[O-])n1CCO` [flagyl], the “wound healing outcome of prior treatment” value is reported as “remained unhealed”.
